According to US8057806B2 (priority 2000, dated 2011):

Assays:
[1] = system: wild-type WSN-UdM virus; assay type: cell-based, influenza A virus
[2] = system: viral replication; details: cited from earlier work

For `NC12CC3CC(CC(C3)C1)C2` [amantadine], the “effect on virus yield and size of plaques” value [1] is listed as “markedly reduced”, the “concentrations at which the drug selectively inhibits viral replication” value [2] is listed as 0.1 to 5 µM and the “concentrations of nonspecific action (increase in pH of endosomes)” value [2] is listed as greater than 50 μM.
